The text below walks through data of ChEMBL document CHEMBL1201862, “PubChem BioAssay data set” (2004).

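In this assay, cells in 96-well plates receive the compound at five concentrations for 48 hours. Endpoints are linearly interpolated between the surrounding concentrations. GI50 = concentration required for 50% inhibition of growth.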 The source made the active and inactive calls. No stated cut-off is given here; in the data, active = GI50 up to about 1.1 µM and inactive = higher. Some results are limits rather than exact numbers.

Holding throughout (experiment): growth of human tumour cells (NCI), 48 h
The test system of assay [1] is A549.
Assay [2] relates to SW-620.
For assay [3], the system named is SK-MEL-5.
In assay [4] the test system is HOP-92.
Assay [5] has as its system NCI-H226.
Assay [6] relates to OVCAR-3.
For assay [7], the system named is SF-268.
Assay [8] concerns A498.
The test system of assay [9] is IGROV-1.
The test system of assay [10] is ACHN.
Assay [11] concerns CAKI-1.
Assay [12] relates to DLD-1.
Assay [13] relates to RXF 393.
The subject of assay [14] is KM12.
Assay [15] has as its system HT-29.
Assay [16] relates to OVCAR-4.
Assay [17] relates to UACC-257.
Assay [18] has as its system MOLT-4.
The subject of assay [19] is NCI/ADR-RES.
The subject of assay [20] is MDA-N.

As to `O=C1c2ccccc2C(Br)(Br)c2ccccc21`, the GI50 was > 31.6 µM (inactive) in assay [1]; > 31.6 µM (inactive) in assay [2]; > 31.6 µM (inactive) in assay [3]; > 100 µM (inactive) in assay [4]; > 31.6 µM (inactive) in assay [5]; > 31.6 µM (inactive) in assay [6]. Moreover, the GI50 in [7] is 25.5 µM (inactive); in assay [8] it was > 10 µM (inactive); in assay [9], > 31.6 µM (inactive); in assay [10], > 31.6 µM (inactive); in assay [11], > 10 µM (inactive); in [12] it was > 31.6 µM (inactive). The GI50 in [13] was 18.2 µM (inactive); in assay [14], > 100 µM (inactive); in assay [15], > 100 µM (inactive); in assay [16], 1.16 µM (inactive); in [17], > 100 µM (inactive); in assay [18] it was > 31.6 µM (inactive).

Regarding `Cc1ccc2ccc3ccc(C)nc3c2n1` [NEOCUPROINE], the GI50 in assay [1] was 7.11 µM (inactive); in assay [2] it was 51.5 µM (inactive); in assay [3] it was > 26.2 µM (inactive); in [4], > 100 µM (inactive); in [5] it was 33.4 µM (inactive); in assay [19], > 100 µM (inactive). The GI50 in [6] is 0.344 µM (active); in assay [7], > 87.9 µM (inactive); in assay [8], > 40.1 µM (inactive); in assay [9] it was 0.429 µM (active); in [10] it was > 100 µM (inactive); in [11], > 100 µM (inactive). The GI50 was 0.656 µM (active) in [12]; > 42 µM (inactive) in assay [13]; > 100 µM (inactive) in assay [20]; 12.5 µM (inactive) in assay [14]; 0.908 µM (active) in assay [15]; 1.86 µM (inactive) in assay [17]. In addition, the GI50 in [18] is 1.34 µM (inactive).

Regarding `CCCCCC1C2C(=O)NC(=O)C1C(=O)NC2=O` (configuration not stated), the GI50 in assay [1], in assay [2], in assay [3], in [4], in [5] and in assay [6] was > 100 µM (inactive) throughout. In addition, the GI50 in assay [7], in assay [8], in [9], in [10], in assay [11] and in assay [12] was > 100 µM (inactive) each time. Moreover, the GI50 in [13], in assay [14], in assay [15], in assay [16], in assay [17] and in assay [18] was > 100 µM (inactive) throughout.

As to `CC1=NN(C(=O)c2ccc(Cl)cc2)C(=O)/C1=C/c1ccc(O)cc1`, the GI50 in assay [1], in assay [2], in assay [3], in assay [4], in assay [5] and in assay [6] was > 100 µM (inactive) each time. The GI50 in assay [7], in assay [8], in [9], in [10], in [11] and in assay [12] was > 100 µM (inactive) throughout. Moreover, the GI50 in [13], in [14], in assay [15], in [16], in assay [17] and in assay [18] was > 100 µM (inactive) in each case.

Take `Cc1ccccc1/N=C/c1ccc(N(CCC#N)S(=O)(=O)c2ccccc2)cc1`: the GI50 in [1], in assay [2], in [3], in [4], in assay [5] and in assay [6] was > 100 µM (inactive) each time. The GI50 in assay [7], in assay [8], in assay [9], in [10], in [11] and in assay [12] was > 100 µM (inactive) in each case. For the same compound, the GI50 in [13], in assay [14], in assay [15], in assay [16], in assay [17] and in [18] was > 100 µM (inactive) throughout.

Take `O=C[C@@H](CO)O[C@H](C=O)c1c[nH]c(=O)[nH]c1=O`: the GI50 in [1] was 192 µM (inactive); in [2], 62.8 µM (inactive); in assay [3] it was 83.9 µM (inactive); in assay [4], 81.1 µM (inactive); in [5], 101 µM (inactive); in [19] it was 103 µM (inactive). Besides, the GI50 in [6] was 68.4 µM (inactive); in [7] it was 102 µM (inactive); in assay [8], 119 µM (inactive); in assay [9] it was 81.1 µM (inactive); in [10] it was 81.1 µM (inactive); in assay [11], 71.6 µM (inactive). In addition, the GI50 in assay [12] is 75 µM (inactive); in assay [13], 54.8 µM (inactive); in assay [20], 70.8 µM (inactive); in assay [14], 93.3 µM (inactive); in assay [15], 107 µM (inactive); in assay [16], 83.9 µM (inactive). The GI50 in assay [17] was 104 µM (inactive); in assay [18] it was 47.8 µM (inactive).

Turning to `CC(=O)Nc1ccc(C(=O)NN2C(=O)C(Cl)C2c2cc(Br)ccc2O)cc1` (configuration not stated), the GI50 in assay [1] is 5.46 µM (inactive); in [2] it was 6.21 µM (inactive); in assay [3] it was 5.04 µM (inactive); in [4] it was 15.2 µM (inactive); in assay [5], 7.36 µM (inactive); in assay [19] it was 3.65 µM (inactive). The GI50 in assay [6] was 4.11 µM (inactive); in [7] it was 1.91 µM (inactive); in assay [9] it was 17.6 µM (inactive); in assay [10], 2.99 µM (inactive); in [12], 4.74 µM (inactive); in [20], 9.16 µM (inactive). Besides, the GI50 was 3.44 µM (inactive) in assay [14]; 9.46 µM (inactive) in assay [15]; 3.76 µM (inactive) in [16]; 3.93 µM (inactive) in [17]; 3.37 µM (inactive) in assay [18].

As to `CCc1cccc(CC)c1NC(=O)C(C#N)C1=C(Cl)C(=O)c2ccccc2C1=O` (configuration not stated), the GI50 in assay [1] was 18.5 µM (inactive); in assay [2], 9.33 µM (inactive); in [3], 14.7 µM (inactive); in assay [4], 2.96 µM (inactive); in assay [5] it was 15 µM (inactive); in [6], 16.8 µM (inactive). The GI50 was 16.6 µM (inactive) in [7]; 19 µM (inactive) in assay [8]; 17.8 µM (inactive) in [9]; 16.4 µM (inactive) in [10]; 15.6 µM (inactive) in assay [11]; 17.4 µM (inactive) in assay [12]. Also, the GI50 in [13] is 16.3 µM (inactive); in assay [20], 16.7 µM (inactive); in [14], 18.9 µM (inactive); in [15], 19.9 µM (inactive); in assay [16], 16.6 µM (inactive); in assay [17], 17.4 µM (inactive). Moreover, the GI50 in assay [18] is 1.53 µM (inactive).
